≈ marks a conversion by molar mass, not a printed value.
Legend:
[1] = system: human lung fibroblast cell line (MRC-5); assay: Cytotoxicity evaluation by MTT assay; assay type: cell-based; conditions: for cell survival: MRC-5 cells, 10 µg/mL, 48 h
Excerpt: (§1) 3. Bioactivity and Toxicity Assays
(§2) Antimicrobial assay: According to the standard broth micro-dilution assays, following the Standards of European Committee on Antimicrobial Susceptibility Testing (v 7.3.1: Method for the determination of broth dilution minimum inhibitory concentrations of antifungal agents for yeasts) for Candida spp., and according to the standard broth micro-dilution assays, recommended by the National Committee for Clinical Laboratory Standards (M07-A8) for bacteria MIC values of compounds were determinate. Compounds were dissolved in DMSO at a concentration of 50 mg/mL, and the highest tested concentration was 250 µg/mL. The inoculums were 1x10^5 colony forming units (CFU/mL), for Candida species, and bacteria species, 5x10^5 colony forming units (CFU/mL). The MIC value was recorded as the lowest concentration that inhibited the growth after 24 h at 37 °C. Additionally, 5 µL from each well of 96 well plates was transferred to Luria Agar (LA) plates for bacteria and Sabouraud agar (SAB) plates for Candida spp. and incubated for an additional 24 h at 37 °C, to determine MBC (Minimum bactericidal/fungicidal concentration) values. In Table 1. Are labeled compounds showing a difference in MBC and previously determined MIC values.
Cytotoxicity evaluation: Antiproliferative activity was tested by MTT assay (3-(4,5-dimethylthiazol-2-yl)-2,5-diphenyltetrazoliumbromide) on a human lung fibroblast cell line (MRC-5; ATCC collection). Pre-grown (24 h) cell monolayers (1x10^4 cells per well) in RPMI 1640 medium supplemented with 100 μg/mL streptomycin, 100 U/mL penicillin, and 10% (v/v) FBS (all from Sigma, Munich, Germany) containing the tested compounds at concentrations ranging from 5 to 20 μg/mL were incubated in a humidified atmosphere of 95% air and 5% CO2 at 37 °C for 48 h. The cell viability (extent of MTT reduction) was measured spectrophotometrically at 540 nm using the Epoch 2000 multiplate reader, and the cell survival was expressed as a percentage of the control (untreated cells). Cytotoxicity was expressed as the concentration of the compound inhibiting cell growth by 50% (IC 50). […]

[2] = system: S. aureus MRSA; assay: Antimicrobial broth micro-dilution assay (MIC); assay type: cell-based; conditions: Staphylococcus aureus; S. aureus MRSA; 24 h at 37 °C; highest tested concentration 250 µg/mL; read-out: Minimum inhibitory concentration (MIC)
Excerpt: as §1
as §2, with “MIC values. […]” for “MIC values.”

[3] = system: C. albicans ATCC 10231 hyphae formation; assay: Filamentation test on Candida (solid spider medium); assay type: cell-based, Candida albicans; conditions: 0.5 times MIC; 120 h; C. albicans ATCC10231
Protocol: Filamentation test on Candida: Using solid composition, the effect of sorrentano ne […]
albicans cells from an overnight culture grown in Sabouraud dextrose broth medium at 37 °C with or without compounds were centrifuged for 10 minutes at maximum speed, and the pellet was washed several times with sterile PBS (phosphate -buffered saline). After it, the pellet was resuspended in 200 µL PBS, and 2 µL of cell suspension was poured over solid composition and incubated at 37 °C for 120 h. Morphological changes of C. albicans ATCC

[4] = system: Caenorhabditis elegans; assay: In vivo toxicity C. elegans survival assay; conditions: for survival rate: C. elegans, 50 µg/mL (highest tested concentration), 48 h
Protocol: 3. Bioactivity and Toxicity Assays […]
Compounds were dissolved in DMSO at a concentration of 50 mg/mL, and the highest tested concentration was 250 µg/mL. […]
In vivo toxicity C. elegans assay: The C. elegans survival assay was carried out as described previously with some modifications. 8 In brief, synchronized worms (L4 stage) were suspended in a medium containing 95% M9 buffer (3.0 g of KH2PO4, 6.0 g of Na2HPO4, 5.0 g of NaCl, and 1 mL of 1 M MgSO4 × 7H2O in 1 L of water), 5% LB (Luria-Bertani) broth (Oxoid, Basingstoke, UK), and 10 μg of cholesterol (Sigma -Aldrich, Munich, Germany) per mL. The experiment was carried out in 96 -well flat -bottomed microtiter plates (Sarstedt, Nümbrecht, Germany) in the final volume of 100 μL per wel l. 25 μL of this suspension of nematodes (25 –35 nematodes) were transferred to the wells of a 96 -well microtiter plate, where 50 μL of the medium was previously added. Next, 25 μL of a solvent control (DMSO) or 25 μL of a concentrated solution was added to the test wells. The final concentrations of the compounds were 50, 25, 10, and 5 µg/mL. Subsequently, the plates were incubated at 25 °C for 2 days. The fraction of dead worms was determined after 48 h by counting the number of dead worms and the total number of worms in each well, using a stereomicroscope (SMZ143-N2GG, Motic, Germany).
As a negative control experiment, nematodes were exposed to the medium containing 1% […]
(§3) Ergosterol biosynthesis assay: Ergosterol levels were measured according to the published procedure with some minor modifications. 10 Briefly, a sing le C. albicans colony from an overnight Sabouraud dextrose agar plate was used to inoculate 50 ml of Sabouraud dextrose broth containing 0.5 MIC concentrated compounds. Incubation was performed for 18 h at 37 °C on the rotary shaker at 180 rpm. Cells were harvested by centrifugation at 3000 rpm for 5 min and washed once with sterile distilled water. The net wet weight of the cell pellet was determined. Three milliliters of 25% alcoholic potassium hydroxide solution (25 g of KOH and 35 ml of sterile distill ed water, brought to 100 ml with 100% ethanol), was added to each pellet and vortex mixed for 1 min and incubated in an 85 °C water bath for 1 h. Tubes were cooled to room temperature and extraction of sterols was done with the addition of a mixture of 1 ml of sterile distilled water and 3 ml of n-heptane followed by vigorous vortex mixing for 3 min. The heptane layer was used for spectrophotometrically measuring ergosterol concentrations by scanning absorbance between 240 nm and 300 nm using Ultrospec 3300pro 573 (Amer sham Biosciences, Amersham, UK).

[5] = system: ergosterol in C. albicans; assay: Ergosterol biosynthesis assay; assay type: cell-based, Candida albicans; conditions: 0.5 MIC; Candida cells; UV profile
Protocol: as §3

CC1=C(O)C(=O)C(C)=C(C(=O)OCc2ccccc2)C1=O [compound 41]
cell survival [1]: over 60%
selectivity index (SI) ([1]; cytotoxicity versus antibiotic activity, calculation not described): 0.77
MIC [2]: 15.6 µg/mL (≈ 54.5 µM)
filamentation (in words) [3]: hardly observed
survival rate [4]: over 90%
reduction of total amount of ergosterol (in words) [5]: most potent in reducing the total amount of ergosterol

CC1=C(O)C(=O)C(C)=C(C(=O)OCCCC(C)C)C1=O [compound 36]
cell survival [1]: over 60%
MIC [2]: 31.2 µg/mL (≈ 111 µM)
filamentation (in words) [3]: hardly observed
in vivo toxicity (in words) ([4]; C. elegans model): comparatively lower in vivo toxicity
survival rate [4]: over 90%
reduction of total amount of ergosterol (in words) [5]: most potent in reducing the total amount of ergosterol

Reference: article PMC12227560, “Total synthesis of a sorrentanone ester library and evaluation of its antimicrobial potential” (Scientific Reports, 2025)
